PMC11271967, “An inhibitory mechanism of AasS, an exogenous fatty acid scavenger: Implications for re-sensitization of FAS II antimicrobials” (PLOS Pathogens, 2024)
Entries after “also recorded” stand apart in the source; their conditions may differ. Read-outs that look alike come from different tables or passages of the source.

Key:
AasS [1] = target: T1, AasS (Vibrio harveyi, UniProt Q00IB3); assay: Isothermal titration calorimetry (ITC), wild-type AasS; format: binding; details: for binding to AasS in ITC: negative controls
Procedure: The assays of Isothermal titration calorimetry (ITC) were conducted to address the stoichiometry of AasS binding to its C10-AMS inhibitor and C10-AMP intermediate. Since both malic acid and pimelic acid are not substrates for AasS, the two dicarboxylic acids were assumed as negative controls in our ITC analysis. Using a micro-calorimeter (MicroCal PEAQ-ITC) as recently described for E-C7 with little change, totally 18 titrations (2 μl each at an internal of 2.5 min) proceeded in the cell at room temperature. Prior to the titration, AasS protein (~40 μM) was saturated with its ATP cofactor (120 μM) in the cell, and C10-AMS inhibitor (or C10) was kept at 600 μM in the syringe. The titration buffer was composed of 150 mM NaCl, 25 mM Tris-HCl (pH8.0), 2 mM DTT, and 3 mM MgCl2. One set of site model by the MicroCal PEAQ-ITC software enabled plotting the titration curves. Next, the stoichiometry (N) and dissociation constant (Kd) were calculated. It was given as an average ± standard deviation (SD) from three independent trials.

[2] = test system: AasS-expressing E. coli ΔbioC strain; assay: AasS-based bypass of biotin synthesis, bacterial viability on M9 agar; format: cell-based, Escherichia coli; details: biotin-deficient M9 medium
Excerpt: Fig 4 Integrated evidence for the inhibition of AasS action with E-C7 fatty acid by C10-AMS compound. A. Schematic diagram of AasS-catalyzed ligation of E-C7 with holo-ACP recipient to produce E-C7-ACP. […] A representative photograph of three independent trials was given. C. Relatively-quantitative analysis (for the inhibitory efficacy of C10-AMS on AasS-catalyzed E-C7-ACP production. As for AasS reaction (panel B), unlike the three components that are at constant levels, namely (i) AasS (31.25 nM), (ii) E-C7 (600 μM), and (iii) ACP (3 μg), C10-AMS inhibitor was supplemented at varied ratio in relative to the AasS enzyme (ranging from 0:1, 25:1, 50:1, 100:1, 200:1, 300:1, 400:1, to 500:1). The ImageJ software was applied to measure the relative percentage (%) of E-C7 fatty acylation in each AasS reaction. The resultant graphs were plotted from three independent experiments, in which the output was expressed as means ± SD (standard deviations). D. Schematic diagram for C10-AMS inhibition of AasS-based bypass of biotin requirement by the E. coli ΔbioC biotin auxotroph on the non-permissive condition. […] Log-phase cultures in a series of 10-fold dilution (shown in panel on right hand), were spotted on the x-gal-containing M9 agar plates supplemented with C10-AMS inhibitor at varied levels (0, 50, 100, to 500 μM). The addition of x-gal substrate enabled the occurrence of blue colonies for better photographing, and viable colonies were highlighted with yellow arrows.
Given that AasS ligates E-C7 fatty acid with holo-ACP, giving E-C7-ACP, an alternative precursor for bacterial biotin synthesis, plasmid-borne aasS expression in ΔbioC biotin auxotroph strain is assumed to overcome the requirement of the primary BioC step [58, 83]. Apart from its WT, three single mutants of AasS (D411A, R426A, and K432A) were examined in vivo, of which the compromised activity is presumably proportional to the varied viability of the ΔbioC reporter strains on the non-permissive M9 growth condition. To test its inhibitory effect, the C10-AMS inhibitor in a series of dilution was supplemented. […]

AasS [3] = assay: In vitro enzymatic activity of AasS (acyl-ACP formation, conformationally-sensitive urea PAGE, ImageJ semi-quantitation); format: biochemical, Vibrio harveyi; details: for activity as substrate of AasS in vitro (ligation with holo-ACP): urea gel; for C10-ACP conversion from C10 substrate, Average: AasS 3 nM, fig. 2E
AasS (D411A) = assay: Isothermal titration calorimetry (ITC), AasS (D411A) mutant; format: binding, Vibrio harveyi
Procedure: Fig 7 Parallels in binding of AasS to the C10-AMP adenylate intermediate and the C10-AMS inhibitor. Structural visualization for AasS binding an intermediate C10-AMP adenylate (A) and its inhibitor C10-AMS (B). […] C. […] Both AasS enzymatic reaction and conformationally-sensitive gel separation were conducted as described in Fig 2D and 2F. D. In vivo evidence that the three single mutants of AasS (D411A, R426A, and K432A) lose the ability to bypass the physiological requirement of biotin for the bioC isogenic mutant of E. coli on the non-permissive condition. The bacterial viability on M9 defined agar medium was determined as performed in Fig 4E. […] The ITC assays were carried out as we conducted in Fig 3B.
The assays of Isothermal titration calorimetry (ITC) were conducted to address the stoichiometry of AasS binding to its C10-AMS inhibitor and C10-AMP intermediate. Since both malic acid and pimelic acid are not substrates for AasS, the two dicarboxylic acids were assumed as negative controls in our ITC analysis. Using a micro-calorimeter (MicroCal PEAQ-ITC) as recently described for E-C7 with little change, totally 18 titrations (2 μl each at an internal of 2.5 min) proceeded in the cell at room temperature. […] Next, the stoichiometry (N) and dissociation constant (Kd) were calculated. […]

[4] = test system: MenE, an o-succinylbenzoyl-CoA synthetase; details: cited from earlier work
AasS(D411A) = assay: Microscale thermophoresis (MST), AasS(D411A) mutant; format: binding, Vibrio harveyi; details: D411A 180 nM; C10/ATP mixture 0.15 nM to 5.0 μM
Procedure: (§1) To validate poor binding of AasS(D411A) to C10 fatty acyl adenylate observed in our ITC assays, the relatively-more sensitive approach of microscale thermophoresis (MST) was additionally applied here as Jerabek-Willemsen et al. described with minor alteration. Using the Protein Labeling Kit (Protein Labeling Kit RED-NHS 2nd Generation, Nano Temper Technology), both the wild-type AasS and its D411A mutant were fluorescently labelled in the MST buffer (150 mM NaCl, 25 mM Tris-HCl, 3 mM MgCl2, 0.05% Tween-20, pH 8.0). The ligand C10-AMP used in MST assays was prepared by an equal mixture of C10 and ATP. In general, an NT.115 Monolith instrument (Nano Temper Technology, Germany) was integrated, of which the routine parameters included a RED/LED (20%) excitation power along with 60% laser power for excitation. Then, the protein samples were siphoned into MST Premium Coated capillaries for the determination of binding affinity at room temperature. The final concentrations of different AasS samples were 40 nM for WT, and 180 nM for D411A, respectively. The mixture of C10/ATP was diluted in a gradient (from 0.15 nM to 5.0 μM). Three independent MST experiments were conducted here. The dissociation constants (Kd) were calculated using the software MO. Affinity Analysis v2.3. Of note, this was largely dependent on the KD model with a 1:1 stoichiometry per binding partner.

AasS [5] = target: T1, AasS; assay: Microscale thermophoresis (MST), wild-type AasS; format: binding; details: AasS 40 nM; C10/ATP mixture 0.15 nM to 5.0 μM
Procedure: as §1

AasS [6] = target: T1, AasS; set-up: method as in PMID 39794554; details: cited from earlier work

T1 sequence (Q00IB3 entry or part of it): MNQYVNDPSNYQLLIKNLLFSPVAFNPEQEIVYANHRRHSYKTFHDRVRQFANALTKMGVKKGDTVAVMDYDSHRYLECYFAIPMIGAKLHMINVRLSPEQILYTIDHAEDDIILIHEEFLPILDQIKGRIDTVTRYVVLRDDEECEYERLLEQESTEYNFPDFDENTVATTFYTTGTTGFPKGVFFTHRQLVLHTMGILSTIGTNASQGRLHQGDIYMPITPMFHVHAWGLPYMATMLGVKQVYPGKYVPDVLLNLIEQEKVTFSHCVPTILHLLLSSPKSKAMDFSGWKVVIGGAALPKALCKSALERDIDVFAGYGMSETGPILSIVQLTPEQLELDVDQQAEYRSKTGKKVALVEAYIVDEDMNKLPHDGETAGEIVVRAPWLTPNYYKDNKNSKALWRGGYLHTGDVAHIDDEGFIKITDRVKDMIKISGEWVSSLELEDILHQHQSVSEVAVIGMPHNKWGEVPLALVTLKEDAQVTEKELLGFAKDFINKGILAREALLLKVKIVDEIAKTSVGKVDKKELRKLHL

SMILES: O=C(O)CCCCCC(=O)O [pimelic acid]
- binding to AasS in ITC (AasS [1]): no binding
- binding to AasS in ITC (AasS [1]; listed as pimelate): none of the two dicarboxylic acids
- support of AasS-based biotin bypass as sole carbon source [2]: loss of function in supporting bacterial viability; also recorded: Failure of AasS-based biotin bypass
- activity as substrate of AasS in vitro (ligation with holo-ACP) (AasS [3]): inactive

SMILES: CCCCCCCCCC(=O)O [C10, decanoic acid]
- Kd (AasS [1]): 54.4 ± 5.1 nM
- C10-ACP conversion from C10 substrate, Average (AasS [3]; C10 6 μM): 46.1519
- C10-ACP conversion from C10 substrate, Average (AasS [3]; C10 12 μM): 68.3859
- C10-ACP conversion from C10 substrate, Average (AasS [3]; C10 24 μM): 90.5892
- C10-ACP conversion from C10 substrate, Average (AasS [3]; C10 60 μM): 89.8102
- C10-ACP conversion from C10 substrate, Average (AasS [3]; C10 120 μM): 91.2632
- C10-ACP conversion from C10 substrate, Average (AasS [3]; C10 180 μM): 91.9374
- C10-ACP conversion from C10 substrate, Average (AasS [3]; C10 240 μM): 91.9685
- binding to AasS (D411A) in ITC (words) (AasS (D411A)): fails to effectively bind
- binding to AasS (D411A) in ITC (words) (AasS (D411A); listed as decanoic acid): does not

SMILES: O=C(O)CC(O)C(=O)O (centres unmarked) [malic acid]
- binding to AasS in ITC (AasS [1]): none of the two dicarboxylic acids; also recorded: without an ability of binding
- support of AasS-based biotin bypass as sole carbon source [2]: loss of function in supporting bacterial viability; also recorded: cannot bypass biotin requirement
- activity as substrate of AasS in vitro (ligation with holo-ACP) (AasS [3]): inactive

SMILES: Nc1ncnc2c1ncn2[C@@H]1O[C@H](COS(=O)(=O)NC(=O)CCC(=O)c2ccccc2C(=O)O)[C@@H](O)[C@H]1O [OSB-AMS]
- mode of inhibition of MenE [4]: mixed-type inhibitor

SMILES: CCCCCCCCCC(=O)OP(=O)(O)OCC1OC(n2cnc3c(N)ncnc32)C(O)C1O (centres unmarked) [C10-AMP, decanoyl-adenylate]
- stoichiometry (n) (AasS [1]; AasS ~40 μM saturated with ATP 120 μM): 0.77 ± 0.04
- Kd (AasS [1]; AasS ~40 μM saturated with ATP 120 μM, ligand 600 μM in syringe, room temperature, read-out: dissociation constant (Kd)): 64.4 ± 5.2 nM
- binding by AasS(D411A) in MST (AasS(D411A)): lose its ability of binding
- binding by wild-type AasS in MST (AasS [5]): efficient binding

SMILES: CCOC(=O)CCCCCC(=O)O [E-C7, mono-ethyl pimelic acid]
- binding affinity to AasS (AasS [6]): mild affinity
